One assay concerns the target T1, SCD5 (Homo sapiens, UniProt Q86SK9).
T1 construct: host or cells: S. cerevisiae ole1Δ strain, plasmid pRS316 with TDH3 promoter and CYC1 terminator
T1 sequence (Q86SK9 1-330): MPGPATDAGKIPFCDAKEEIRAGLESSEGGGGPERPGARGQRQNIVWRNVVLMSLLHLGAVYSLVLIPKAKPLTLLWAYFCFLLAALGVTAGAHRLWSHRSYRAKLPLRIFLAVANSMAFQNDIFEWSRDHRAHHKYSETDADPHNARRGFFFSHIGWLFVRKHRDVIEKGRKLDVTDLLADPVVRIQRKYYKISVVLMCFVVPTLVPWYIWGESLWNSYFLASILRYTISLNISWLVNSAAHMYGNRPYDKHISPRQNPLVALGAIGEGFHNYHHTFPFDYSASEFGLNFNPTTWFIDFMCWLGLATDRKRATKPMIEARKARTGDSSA
Briefly: Growth inhibition of humanized yeast expressing SCD5 as sole desaturase. It is filed as cell-based. The method, then: (§1) Strain ole1Δ (yeast ole1 deletion mutant) was constructed by deleting OLE1 with NAT-MX6 in BY4741, amplifying the deletion cassette from the genomic DNA of the resulting strain with primers flanking the ORF by 1000 bp upstream and downstream, transforming the resulting deletion cassette into W303 pdr1Δ pdr3Δ, and plating transformants on YPD media containing G418 (200 μg/mL) and nourseothricin (100 μg/mL) with 0.01% TWEEN®-20 and 0.5 mM oleic and palmitoleic acids.
(§2) The coding sequence of yeast OLE1 was also cloned into this plasmid). These clones were then transformed into the ole1Δ strain and plated on CSM-Ura media (CSM lacking uracil) with 2% glucose (w/v) and independent colonies were isolated and amplified.
(§3) All compound profiling experiments were performed using the same basic protocol. Different genetic backgrounds (e.g., gene deletions) or conditions (e.g., addition of oleic and palmitoleic acid) were replaced as indicated below.
(§4) Yeast were cultured using standard techniques in complete synthetic media (CSM) and yeast nitrogen base supplemented with 2% (w/v) carbon source (glucose, raffinose, or galactose) to regulate the expression of the toxic disease protein. An initial starter culture was inoculated in 3 mL CSM-Glucose media and incubated overnight in a 30° C. shaker incubator (225 rpm). Saturated morning cultures were then diluted 1:20 in fresh CSM-Raffinose media and grown for 6 h to an OD600 (optical density) of ˜0.4-0.8 at 30° C. with shaking.
(§5) Compound administration was performed in two separate steps. First, 15 μL of CSM-Galactose (induces expression of toxic protein) was dispensed into clear 384 well assay plates using a MULTIDROP™ Combi reagent dispenser. […] The cultures described above were then diluted to a 2× concentration (0.03 and 0.08 for alpha-synuclein and ApoE, final OD600 of 0.015 and 0.04) in CSM-Galactose. For wild-type and Ole1/SCD1/SCD5 plasmid-containing strains, the 2× cell density was 0.02. […] For 96-well assays (FIGS. 1A and 1B), compound dilutions in DMSO were generated in 96 well plates and 1 μL was manually pipetted into 96 well clear bottom assay plates.
(§6) For experiments using a plasmid-borne copy of Ole1, SCD1, or SCD5 (FIGS. 3B, 6, and 7), media lacking uracil (SX-Ura, where X is glucose, raffinose, or galactose), was used for all steps of the compound profiling protocol to ensure its maintenance throughout the assay.
(§7) After yeast delivery, assay plates were incubated under humidified conditions at 30° C. for 24 to 40 h. ApoE4 rescue experiments were stopped at 24 h, aSyn experiments at 40 h, Ole1 at 24 h, and SCD1/SCD5 at 40 h. The growth of yeast was monitored by reading the OD600 of each well using a microplate reader (Perkin Elmer EnVision™).

For another assay, the target named is T2, SCD1 (Homo sapiens, UniProt O00767).
T2 construct: host or cells: S. cerevisiae ole1Δ strain, plasmid pRS316 with TDH3 promoter and CYC1 terminator
T2 sequence (O00767 1-359): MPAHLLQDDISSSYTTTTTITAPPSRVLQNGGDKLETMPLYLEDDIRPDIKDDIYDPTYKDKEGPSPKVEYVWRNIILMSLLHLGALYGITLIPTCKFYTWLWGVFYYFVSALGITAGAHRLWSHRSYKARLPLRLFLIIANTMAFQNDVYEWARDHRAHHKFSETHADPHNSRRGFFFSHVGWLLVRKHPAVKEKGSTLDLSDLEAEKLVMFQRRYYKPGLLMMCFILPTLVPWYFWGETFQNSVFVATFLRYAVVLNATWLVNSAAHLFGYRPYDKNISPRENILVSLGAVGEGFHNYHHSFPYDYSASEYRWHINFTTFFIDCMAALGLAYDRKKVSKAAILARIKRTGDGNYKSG
As to the kind of experiment: Growth inhibition of humanized yeast expressing SCD1 as sole desaturase. It is filed as cell-based. As for the experimental part:
as §1, §2, §3, §4, §5, §6, §7

Where [1] appears, read: humanized yeast expressing human SCD5.
Where [2] appears, read: humanized yeast expressing human SCD1.
Setting [3] is: growth of humanized yeast strain expressing human SCD5.
Setting [4] is: growth of humanized yeast strain expressing human SCD1.
Setting [5] is: humanized yeast expressing SCD1.

“And” between values parts separate entries of the source, which are not always exact repeats. Equal entries are not always repeated. Bounds are passed on as bounds.

For `CC(=O)N1CC(n2cc3ccc(-c4nc(C5CCN(C(=O)OC(C)(C)C)CC5)no4)cc3n2)C1` [Compound 862], the IC50 worked out at 0.01 µM at SCD5 (humanized yeast strain, 40 h) and 33.8 µM on SCD1 (humanized yeast strain, 40 h).

As for `CC1=NN(C)C2C=C(c3noc([C@H]4CC[C@H](O)CC4)n3)C=CC12` (stereo partly drawn) [Compound 526], the IC50 on SCD5 (setting [1]) and on SCD1 (setting [2]) was over 45 µM throughout. Turning to `CC(C)n1ncc2ccc(N3CC4(CCN(C(=O)OC(C)(C)C)CC4)C3)cc21` [Compound 511], the IC50 was 3.39 µM against SCD5 (setting [1]) and over 45 µM at SCD1 (setting [2]). For `Cc1nn(C)c2cc(-c3noc(C4CCN(C(=O)CNC(=O)c5ccc(Cl)cc5)CC4(F)F)n3)ccc12` (stereo not drawn) [Compound 553] the same measures were 0.885 µM and 5.71 µM. In the case of `CC(C)n1ncc2ccc(-c3noc(N4CCN(C(=O)OC5CC5)CC4)n3)cc21` [Compound 496], half-maximal inhibition against SCD5 (setting [1]) (IC50) was put at 0.445 µM. Same read-out and setting: the same measure for `N#Cc1cccc(N2CC(C(=O)N3CCC(c4nc(Cl)no4)CC3)CC2=O)c1` (stereo not drawn) [Compound 350]: at least 45 µM. As to `Cc1cc(N2CCN(c3nc(-c4ccc5cnn(C(C)C)c5c4)no3)CC2)on1` [Compound 657], the values for the IC50 against SCD5 (setting [3]) and against SCD1 (setting [4]) were 9.11 µM and over 45 µM, respectively. Consider `O=C(C1CC(=O)N(c2cccc(Cl)c2)C1)N1CCC(c2nc(Cl)no2)CC1` (stereo not drawn) [Compound 348], for which the IC50 against SCD5 (setting [1]) is at least 45 µM. `CC(C)n1ncc2ccc(N3CC4(CCN(C(=O)OC(C)(C)C)CC4)C3)cc21` [Compound 663]: the IC50 against SCD5 (setting [3]) is 0.01 µM; on SCD1 (setting [4]), over 45 µM. Regarding `O=C([C@H]1CC(=O)N(c2ccccc2)C1)N1CCC(c2nc(N3CC4(COC4)C3)no2)CC1` [Compound 316], at SCD5 (setting [1]), the IC50 is at least 45 µM. Regarding `Cc1noc(N2CCC(c3nc(-c4ccc5c(C)nn(C)c5c4)no3)CC2)n1` [Compound 543], the IC50 against SCD5 (setting [1]) was at least 45 µM; against SCD1 (setting [2]) it was over 45 µM.

At SCD5 (setting [1]), `CC(C)n1ncc2ccc(-c3nc(C4CCN(C(=O)c5cccc(F)c5)CC4)no3)cc21` [Compound 547] had an IC50 of 44.3 µM. In turn, `CC(C)n1ncc2ccc(-c3noc(C4CCN(C(=O)[C@@H]5CC(=O)N(c6cccc(C#N)c6)C5)CC4)n3)cc21` [Compound 528] showed an IC50 against SCD1 (setting [2]) of over 45 µM.

At SCD1 (setting [2]), `CC(C)n1ncc2ccc(-c3noc(C4CCN(C(=O)c5ccc(Cl)cc5)CC4)n3)cc21` [Compound 363] yielded a half-inhibitory concentration (IC50) of over 45 µM. The same measure, in the same setting: in the case of `CC(C)OC(=O)N1CCC(c2nc(-c3ccc4oc(=O)n(C(C)C)c4c3)no2)CC1` [Compound 507] it was over 45 µM. The same measure, in the same setting: in the case of `CC(C)n1ncc2ccc(-c3noc(C4CCN(C(=O)c5ccc(Cl)c(F)c5)CC4)n3)cc21` [Compound 541] it was over 45 µM. On the same count and under the same terms, in the case of `CC(C)n1ncc2ccc(-c3nc(N4CCN(C(=O)c5ccccc5)CC4)no3)cc21` [Compound 582] it was over 45 µM. Turning to `COc1cccc(-c2noc(C3CC(=O)N(c4ccc(C)c(C)c4)C3)n2)c1` (stereo not drawn) [Compound 489], on SCD1 (setting [5]), the IC50 worked out at 41 µM.

For the molecule `COC(=O)N1CCC(c2nc(-c3ccc4cnn(C(F)F)c4c3)no2)CC1` [Compound 561], the half-maximal inhibitory concentration (IC50) at SCD1 (setting [2]) is over 45 µM. The same measure, in the same setting: the same measure for `CC(C)n1ncc2ccc(N3CC4(CCNCC4)C3)cc21` [Compound 538]: over 45 µM.

For `CC(C)n1ncc2ccc(-c3noc(N4CC5(CCN(C(=O)OC(C)(C)C)CC5)C4)n3)cc21` [Compound 555], the IC50 at SCD1 (setting [2]) was over 45 µM.

`CC(C)OC(=O)N1CCC(c2nc(-c3ccc4cnn(C(C)C)c4c3)no2)CC1` [Compound 357] yielded an IC50 against SCD1 (setting [2]) of over 45 µM. Same read-out and setting: the same measure for `CCc1c2ccc(-c3noc(C4CCN(C(=O)CNC(=O)c5ccccc5)CC4)n3)cc2nn1C` [Compound 321]: over 45 µM. On the same count and under the same terms, in the case of `Cc1noc2cc(-c3noc(C4CCN(C(=O)CC5(C)CC5)CC4)n3)ccc12` [Compound 591] it was over 45 µM; in that of `CC(C)n1ncc2ccc(-c3noc(C4CCN(C(=O)c5ccc(F)cc5)CC4)n3)cc21` [Compound 544], over 45 µM; in that of `CC(C)c1ccc(C(=O)N2CCC(c3nc(N4CC5(CCCO5)C4)no3)CC2)cc1` [Compound 336], over 45 µM. Still for that read-out and setting: the same measure for `CC(C)n1cc2ccc(-c3noc(C4CCN(C(=O)OC(C)(C)C)CC4)n3)cc2n1` [Compound 277]: over 45 µM; for `CC(C)n1ncc2ccc(-c3noc(C4CCN(C(=O)CNC(=O)c5cccc(C#N)c5)CC4)n3)cc21` [Compound 556]: over 45 µM; for `CC(C)n1ncc2ccc(-c3noc(C4CCN(C(=O)[C@H]5CC(=O)N(c6cccc(C#N)c6)C5)CC4)n3)cc21` [Compound 529]: over 45 µM. Molecule `CNC(=O)c1ccc(-c2noc(C3CCN(C(=O)[C@H]4CC(=O)N(c5ccccc5)C4)CC3)n2)cn1` [Compound 252] came in with an IC50 at SCD1 (setting [2]) of over 45 µM. The molecule `CC(C)n1ncc2ccc(-c3nc(N4CCN(C(=O)OC(C)(C)C)CC4)no3)cc21` [Compound 548] displayed an IC50 against SCD1 (setting [2]) of over 45 µM.

On SCD1 (setting [2]), `CC(C)c1ccc(C(=O)N2CCC(c3nc(N4CC5(COC5)C4)no3)CC2)cc1` [Compound 337] gave an IC50 of over 45 µM. Take `CC(C)CS(=O)(=O)N1CCC(c2nc(-c3ccc4cnn(C(C)C)c4c3)no2)CC1` [Compound 565]: the 50% inhibitory concentration (IC50) against SCD1 (setting [2]) is over 45 µM. `O=C(c1ccccc1)N1CCC(c2nc(Cl)no2)CC1` [Compound 351] registered an IC50 against SCD5 (setting [1]) of at least 45 µM. Take `CCc1nn(C)c2cc(-c3noc(C4CCN(C(=O)CNC(=O)c5ccccc5)CC4)n3)ccc12` [Compound 309]: the IC50 at SCD1 (setting [2]) is over 45 µM. `CCN(Cc1nc(-c2ccc3c(c2)N(CC)C(=O)CO3)no1)C(=O)Cc1cccc2ccccc12` [Compound 494] registered an IC50 at SCD1 (setting [5]) of over 45 µM.

For `Cn1c(=O)n(C)c2cc(-c3noc(C4CCN(C(=O)[C@@H](CO)NC(=O)c5ccccc5)CC4)n3)ccc21` [Compound 214], at SCD1 (setting [5]), half-maximal inhibition (IC50) was put at 41 µM. On SCD1 (setting [2]), `Cc1nn(C)c2cc(-c3noc(C4CCN(C(=O)COc5ccccc5)CC4)n3)ccc12` [Compound 266] had an IC50 of over 45 µM.

For the molecule `Cc1nn(C)c2cc(-c3nc(C4CCN(C(=O)OC(C)(C)C)CC4)no3)ccc12` [Compound 319], the “SCD5 % Max Inhibition” value at SCD5 (humanized yeast expressing SCD5) is 4.96% and 10.94%. `CC(C)n1ncc2ccc(-c3noc(C4CCN(S(=O)(=O)c5ccccc5Cl)CC4)n3)cc21` [Compound 540]: the IC50 against SCD1 (setting [2]) is over 45 µM. At SCD1 (setting [2]), `CC(C)n1ncc2ccc(-c3noc(C4CCN(C(=O)c5ncc(Cl)s5)CC4)n3)cc21` [Compound 589] showed an IC50 of over 45 µM.

`COC(=O)N1CCC(c2nc(-c3ccc4cnn(C(C)C)c4c3)no2)CC1` [Compound 355] registered an IC50 against SCD1 (setting [2]) of over 45 µM. Same read-out and setting: in the case of `COCC(=O)N1CCN(c2nc(-c3ccc4cnn(C(C)C)c4c3)no2)CC1` [Compound 595] it was over 45 µM. Still for that read-out and setting: in the case of `Cc1nn(C)c2cc(-c3noc(C4CCN(C(=O)CNC(=O)c5ccccc5C(F)(F)F)CC4)n3)ccc12` [Compound 271] it was over 45 µM; in that of `N#Cc1cccc(N2C[C@@H](C(=O)N3CCC(c4nc(-c5ccc6cnn(C7COC7)c6c5)no4)CC3)CC2=O)c1` [Compound 599], over 45 µM.

`Cc1nn(C)c2cc(-c3nsc(C4CCN(C(=O)CNC(=O)c5ccccc5)CC4)n3)ccc12` [Compound 250]: the IC50 at SCD1 (setting [2]) is over 45 µM.

Take `CCc1cnc(N2CCC(c3nc(-c4ccc5c(C)nn(C)c5c4)no3)CC2)cn1` [Compound 560]: at SCD1 (setting [2]), the IC50 is over 45 µM.

A word on the IC50: it is the concentration that gives 50% inhibition.

Values taken from patent US20240400546A1, “COMPOUNDS AND USES THEREOF” (JANSSEN PHARMACEUTICA NV, priority 2016, published 2024).
